Measurements as given in patent US9221761B2, “Method for inhibition of deubiquitinating activity” (Vivolux AB, priority 2011, dated 2015).

Tests used:
HCT116 = test: FMCA (Fluorometric Microculture Cytotoxicity Assay) cytotoxicity; format: cell-based; conditions: 72 hours of continuous compound exposure
Experimental: FIGS. 1a to 1o are diagrams illustrating induction of dose-dependent cytotoxicity after 72 hours of continuous compound exposure to the reporter cell line HCT-116 by embodiments of the compound of the invention, as measured FMCA (Fluorometric Microculture Cytotoxicity Assay), as well as absence of such induction by structurally related compounds not comprised by the invention. Treated cells were compared to untreated controls (survival index);
Determination of cell apoptosis and viability. For determination of apoptosis parental HCT-116 p53+/+ cells are treated with the increasing doses of the compound of the invention for 24 h. […] HCT-116 cells are seeded in 96-well microtiter plates at 10,000 cells per well and incubated overnight. Cells are treated with indicated drug for 24 h. At the end of the incubation period, NP40 is added to the tissue culture medium to 0.1% and 25 μl of the content of each well was assayed using the M30-Apoptosense® ELISA as previously described (31). Cell viability is determined by measuring acid phosphatase activity or using the FMCA method (32). For the acid phosphatase activity cells are seeded at 5000 cells per well in 96-well culture plates and incubated for 12 h at 37° C. Compounds are added to the cells in growth media and incubated for 72 h at 37° C. Cells are washed with 200 μl warm PBS. 100 μl of para-nitrophenyl phosphate (pNPP, 2 mg/ml) in Na acetate buffer pH 5 (NaAc 0.1 M, 0.1% Triton-X-100) is added per well. Cells are incubated for 2 h after which reaction was stopped by addition of 1N NaOH. Absorbance is measured at 405 nm. The dose-dependent cytotoxicity of a number of embodiments of the compound of the invention is illustrated in FIGS. 1a-1o.
For the FMCA assay cells are seeded in the drug-prepared 384-well plates using the pipetting robot Precision 2000 (Bio-Tek Instruments Inc., Winooski, Vt.). The plates are incubated for 72 h and then transferred to an integrated HTS SAIGAN Core System consisting of an ORCA robot (Beckman Coulter) with CO2 incubator (Cytomat 2C, Kendro, Sollentuna, Sweden), dispenser module (Multidrop 384, Titertek, Huntsville, Ala.), washer module (ELx 405, Bio-Tek Instruments Inc), delidding station, plate hotels, barcode reader (Beckman Coulter), liquid handler (Biomek 2000, Beckman Coulter) and a multipurpose reader (FLUOstar Optima, BMG Labtech GmbH, Offenburg, Germany) for automated FMCA. Survival index (SI) is defined as the fluorescence of test wells in percentage of controls with blank values subtracted.
FIGS. 3b, 3d, 3f are diagrams illustrating the cytotoxicity of compounds of the invention nos. 1546, 1547, and 1570 with a 7-membered ring moiety in comparison to structurally corresponding compounds not comprised by the invention with a 6-membered ring moiety. Their induction of dose-dependent cytotoxicity was determined after 72 hours of continuous compound exposure to the reporter cell line HCT-116. Treated cells were compared with untreated controls. Cytotoxicity is visualized as survival index (SI) over the range of about 90% SI to about 0% SI in dependence on compound concentration.

[1] = test system: MelJuSo Ub-YFP reporter cell line; test: Proteasome inhibition in reporter cell line, YFP accumulation in IncuCyte-FLR; format: cell-based; conditions: YFP accumulation measured for 48 hours; for MeJuSo-UB, lowest effective conc.: Table 2
Text: Cell culture. MCF7 cells are maintained in MEM/10% fetal calf serum. HCT-116 p53+/+, p53−/−, Bcl-2+/+, PUMA−/− and BAX−/− cells are maintained in McCoy's 5A modified medium/10% fetal calf serum. The HCT-116 p53+/+, p53−/−, PUMA−/− and BAX−/− are generated as described (25). The HCT-116 Bcl-2+/+ cell line was generated by transfecting parental HCT-116 p53+/+ cells with pCEP4 Bcl-2 (Addgene plasmid 16461) (26) and isolating high expression clones. FaDu and LLC3 cells are maintained in DMEM high glucose medium supplemented with 10% fetal calf serum, Na pyruvate, Hepes and non-essential amino acids. 4T1.12B carcinoma cells are maintained in RPMI medium supplemented with 10% fetal calf serum. The proteasome reporter cell line MelJuSo Ub-YFP was generated as described (12). Cells were maintained in Dulbecco's Modified Eagle's Medium/10% fetal calf serum. […] The retinal epithelial cell line was generated as described (28). All cells are maintained at 37° C. in 5% CO2.
The compound of the invention induces proteasome inhibition. The reporter cell line MelJuSo Ub-YFP, which is engineered to accumulate yellow fluorescent protein (YFP) upon proteasome inhibition (12), was used for compound evaluation. The accumulation of YFP was measured for 48 hours in an IncuCyte-FLR system (Essen Bioscience, Essen, UK), which is an automated fluorescence microscope. Numbers of positive cells per field were used as a measure of proteasome inhibition.

SMILES | IC50 (HCT116; Table 1) | MeJuSo-UB, IncuCyte lowest effective conc. ([1]; Table 1) | IC50 (HCT116; Table 2) | MeJuSo-UB, lowest effective conc. [1] | MeJuSo-UB, IncuCyte lowest effective conc. (μM) ([1]; Table 1)
COc1ccc(C=C2CN(C)CCC(=Cc3ccc([N+](=O)[O-])cc3)C2=O)cc1 [Compound 1588] | 3100 nM | 1 µM | – | – | –
CN1CCC(=Cc2ccc(Cl)cc2)C(=O)C(=Cc2ccc(F)cc2)C1 [Compound 1589] | 2500 nM | 1 µM | – | – | –
COc1ccc(C=C2CN(C)CCC(=Cc3ccc(Cl)cc3)C2=O)cc1 [Compound 1590] | 2000 nM | 1 µM | – | – | –
O=C1C(=Cc2ccc([N+](=O)[O-])cc2)CCNCC1=Cc1ccc(Cl)cc1 [Compound 1591] | 900 nM | 0.5 µM | – | – | –
O=C1C(=Cc2ccc(Cl)cc2)CCNCC1=Cc1ccc([N+](=O)[O-])cc1 [Compound 1592] | 12000 nM | 4 µM | – | – | –
CN1CCC(=Cc2ccc([N+](=O)[O-])cc2)C(=O)C(=Cc2ccc(F)cc2)C1 [Compound 1593] | 2900 nM | 1 µM | – | – | –
CN1CCC(=Cc2ccc([N+](=O)[O-])cc2)C(=O)C(=Cc2ccc(Cl)cc2)C1 [Compound 1594] | 2600 nM | 1 µM | – | – | –
CN1CCC(=Cc2ccc(F)cc2)C(=O)C(=Cc2ccc(Cl)cc2)C1 [Compound 1595] | 2300 nM | 1 µM | – | – | –
O=C1C(=Cc2ccc([N+](=O)[O-])cc2)CCNCC1=Cc1ccc(F)cc1 [Compound 1596] | 2600 nM | 2 µM | – | – | –
CC(=O)N1CCC(=Cc2ccc([N+](=O)[O-])cc2)C(=O)C(=Cc2ccc(Cl)cc2)C1 [Compound 1597] | – | – | 1300 nM | 1 µM | –
CN1CCC(=Cc2ccc(F)c(Cl)c2)C(=O)C(=Cc2ccc(F)c(Cl)c2)C1 [Compound 1608] | 1800 nM | 1 µM | – | – | –
CN1CCC(=Cc2ccc(F)c(C(F)(F)F)c2)C(=O)C(=Cc2ccc(F)c(C(F)(F)F)c2)C1 [Compound 1609] | 1400 nM | 1 µM | – | – | –
CN1CCC(=Cc2ccc(F)c(F)c2)C(=O)C(=Cc2ccc(F)c(F)c2)C1 [Compound 1610] | 1700 nM | 1 µM | – | – | –
O=C1C(=Cc2cc(F)cc(C(F)(F)F)c2)CCNCC1=Cc1cc(F)cc(C(F)(F)F)c1 [Compound 1611] | 1100 nM | 0.5 µM | – | – | –
CN1CCC(=Cc2cc(F)cc(C(F)(F)F)c2)C(=O)C(=Cc2cc(F)cc(C(F)(F)F)c2)C1 [Compound 1612] | 700 nM | 0.25 µM | – | – | –
O=C1C(=Cc2ccc([N+](=O)[O-])cc2)CCNCC1=Cc1ccc([N+](=O)[O-])cc1 [Compound 1613] | 25000 nM | 32 µM | – | – | –
CN1CCC(=Cc2ccc([N+](=O)[O-])cc2)C(=O)C(=Cc2ccc([N+](=O)[O-])cc2)C1 [Compound 1614] | 7400 nM | 8 µM | – | – | –
CN1CCC(=Cc2ccc(Cl)c(C(F)(F)F)c2)C(=O)C(=Cc2ccc(Cl)c(C(F)(F)F)c2)C1 [Compound 1615] | 900 nM | 0.5 µM | – | – | –
CN1CCC(=Cc2ccc(C(F)(F)F)cc2)C(=O)C(=Cc2ccc(C(F)(F)F)cc2)C1 [Compound 1617] | 1600 nM | 1 µM | – | – | –
CN1CCC(=Cc2ccc(F)c(C#N)c2)C(=O)C(=Cc2ccc(F)c(C#N)c2)C1 [Compound 1618] | 1500 nM | 0.5 µM | – | – | –

SMILES | IC50 (HCT116; Table 1) | MeJuSo-UB, IncuCyte lowest effective conc. ([1]; Table 1) | IC50 (HCT116; Table 2) | MeJuSo-UB, lowest effective conc. [1] | MeJuSo-UB, IncuCyte lowest effective conc. (μM) ([1]; Table 1)
CN1CCC(=Cc2cccc([N+](=O)[O-])c2)C(=O)C(=Cc2cccc([N+](=O)[O-])c2)C1 [Compound 1620] | > 32000 nM | – | – | – | no effect
CN1CCC(=Cc2ccc(C#N)cc2)C(=O)C(=Cc2ccc(C#N)cc2)C1 [Compound 1621] | 4500 nM | 2 µM | – | – | –
O=C1C(=Cc2ccc(F)c(C(F)(F)F)c2)CCNCC1=Cc1ccc(F)c(C(F)(F)F)c1 [Compound 1622] | 800 nM | 0.5 µM | – | – | –
N#Cc1cc(C=C2CCNCC(=Cc3ccc(F)c(C#N)c3)C2=O)ccc1F [Compound 1623] | 1000 nM | 0.5 µM | – | – | –
CN1CCC(=Cc2ccc(C(F)(F)F)c(F)c2)C(=O)C(=Cc2ccc(C(F)(F)F)c(F)c2)C1 [Compound 1624] | 1800 nM | 1 µM | – | – | –
N#Cc1ccc(C=C2CCNCC(=Cc3ccc(C#N)cc3)C2=O)cc1 [Compound 1625] | 900 nM | 0.5 µM | – | – | –
O=C1C(=Cc2ccc(C(F)(F)F)c(F)c2)CCNCC1=Cc1ccc(C(F)(F)F)c(F)c1 [Compound 1626] | 800 nM | 8 µM | – | – | –
CC(=O)N1CCC(=Cc2ccc(C(F)(F)F)cc2)C(=O)C(=Cc2ccc(C(F)(F)F)cc2)C1 [Compound 1627] | – | – | 700 nM | 1 µM | –
CC(=O)N1CCC(=Cc2ccc(F)c(F)c2)C(=O)C(=Cc2ccc(F)c(F)c2)C1 [Compound 1628] | – | – | 2300 nM | 1 µM | –
CC(=O)N1CCC(=Cc2cc(F)c(F)c(F)c2)C(=O)C(=Cc2cc(F)c(F)c(F)c2)C1 [Compound 1629] | – | – | 600 nM | 1 µM | –
CC(=O)N1CCC(=Cc2ccc(Cl)c(F)c2)C(=O)C(=Cc2ccc(Cl)c(F)c2)C1 [Compound 1630] | – | – | 900 nM | 0.5 µM | –
CC(=O)N1CCC(=Cc2ccc(F)c(Cl)c2)C(=O)C(=Cc2ccc(F)c(Cl)c2)C1 [Compound 1631] | – | – | 1000 nM | 32 µM | –
CC(=O)OCCC(=O)N1CCC(=Cc2ccc(Cl)cc2)C(=O)C(=Cc2ccc(Cl)cc2)C1 [Compound 1633] | – | – | 2200 nM | 4 µM | –
O=C1C(=Cc2ccc(Cl)cc2)CCN(C(=O)Cc2ccccc2)CC1=Cc1ccc(Cl)cc1 [Compound 1635] | – | – | 1400 nM | 2 µM | –
O=C1C(=Cc2ccc(Cl)cc2)CCN(C(=O)c2cccnc2)CC1=Cc1ccc(Cl)cc1 [Compound 1637] | – | – | 2100 nM | 2 µM | –
O=C1C(=Cc2ccc(Cl)cc2)CCN(C(=O)c2cccs2)CC1=Cc1ccc(Cl)cc1 [Compound 1638] | – | – | 2000 nM | 2 µM | –
CCOc1cc(CC(=O)N2CCC(=Cc3ccc(Cl)cc3)C(=O)C(=Cc3ccc(Cl)cc3)C2)ccc1O [Compound 1639] | – | – | 1200 nM | 1 µM | –
O=C1C(=Cc2ccc(C(F)(F)F)cc2)CCN(C(=O)Cc2cccnc2)CC1=Cc1ccc(C(F)(F)F)cc1 [Compound 1641] | – | – | 2700 nM | 2 µM | –
CC(=O)OCC(=O)N1CC/C(=C\c2ccc(C(F)(F)F)cc2)C(=O)/C(=C/c2ccc(C(F)(F)F)cc2)C1 [Compound 1642] | – | – | 1200 nM | 1 µM | –
